Laboratory results reported in PubChem BioAssay (NCI).
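96-well plates; 48 h exposure; 5 concentrations. Endpoints by linear interpolation between flanking doses. Not reached: highest tested concentration assigned. TGI marks complete inhibition of growth.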

Columns and labels:
Assay in all cases: DTP human tumour cell line panel, 48 h
BT-549 breast = test system: BT-549 breast
K-562 leukemia = test system: K-562 leukemia
786-0 renal = test system: 786-0 renal
UACC-257 melanoma = test system: UACC-257 melanoma
MDA-N = test system: MDA-N
RXF 393 renal = test system: RXF 393 renal
NCI-H460 lung = test system: NCI-H460 lung
SN12C renal = test system: SN12C renal
HCT-15 colon = test system: HCT-15 colon
HOP-92 NSCLC = test system: HOP-92 NSCLC
NCI/ADR-RES ovarian = test system: NCI/ADR-RES ovarian

SMILES	TGI (BT-549 breast) [µM]	TGI (K-562 leukemia) [µM]	TGI (786-0 renal) [µM]	TGI (UACC-257 melanoma) [µM]	TGI (MDA-N) [µM]	TGI (RXF 393 renal) [µM]	TGI (NCI-H460 lung) [µM]	TGI (SN12C renal) [µM]	TGI (HCT-15 colon) [µM]	TGI (HOP-92 NSCLC) [µM]	TGI (NCI/ADR-RES ovarian) [µM]
CCN(CC)C1Oc2cc3c(cc2C(c2cccc(OC)c2OC)C1C)OCO3 (configuration not stated)	23.6	14.4	22.7	24.9	50.5	11.8	17.7	> 100	> 100		
COC(=O)C(Cc1c[nH]c2ccccc12)N=C1Nc2ccncc2S(=O)(=O)N1c1cccc(OC(C)C)c1 (configuration not stated)	> 100	> 100	> 100	> 100	> 100	> 100	> 100	> 100	> 100	43.3	> 100
CC(C)(C)NC(=O)CCC1C(C(=O)NC(C)(C)C)C2(Cl)C(Cl)=C(Cl)C1(Cl)C2(Cl)Cl (configuration not stated)	> 100	> 100	> 100	> 100	> 100	> 100	> 100	> 100	> 100		> 100
COc1cc(Nc2nc3cc(C(F)(F)F)ccc3n3cccc23)cc(OC)c1OC	> 100	> 100		> 100	> 100	> 100		> 100	> 100	> 100	> 100
O=NN(CCF)C(=O)NC1CCSCC1		> 31.6		> 100		> 100	> 100	> 100	> 100	> 100	> 100
Cc1cnc2c(c1C)C(=O)c1ccccc1C2=O	> 100	> 100	> 100	> 100		> 100	53.8	> 100	88.1	> 100	> 100
O=C(c1ccccc1)c1c(CC(O)c2ccncc2)n(C(=O)c2ccccc2)c2ccccc12 (configuration not stated)			39.1	32.9			49.9		38.7	29.4	
CN1CCN(c2ccc3c(c2)NCC(=O)N3)CC1	> 100	> 100	> 100	> 100		> 100	> 100		> 100	> 100	> 100
CN(C)CCNC(=O)c1cccc2c(NC(CCC(N)=O)C(=O)O)c3ccccc3nc12 (configuration not stated)	33.4	> 100	> 100	> 100	31.4		54.9	81	22.5	> 100	> 100
COC(=O)C(=O)Cc1nc2ccccc2o1		> 100		> 100		> 100	> 100	> 100	> 100		
OC(c1cccnc1Cl)c1nc2ccccc2c2ccnc(Cl)c12 (configuration not stated)	> 100	> 100		> 100	4.49	35.4	> 100	45.8	> 100	> 100	> 100
